Consider one molecule from doi:10.1101/2022.09.09.507370v4 (biorxiv, 2022).

SMILES strings stand for the structures.

Usually IC50 stands for the concentration that gives 50% inhibition. High values mean a need for much substance, low ones inhibition by little substance.

Some test systems named below: Dyn2-His6; Dyn1-His6; Dyn3-His6.
Holding throughout (assay type): biochemical
Common to all, as to settings: PS-liposome-stimulated (5.0 μM PS-liposomes), 20 nM enzyme, GTP, pH 7.4

In the case of `CCCCCCCCCCCCCC[N+](C)(C)C` [MiTMAB], the IC50 was 9.2 ± 2.5 µM in the assay with Dyn2-His6, 8.1 ± 3.7 µM with Dyn1-His6 and 7.8 ± 3 µM in the assay on Dyn3-His6.
